Assay results from ChEMBL document CHEMBL1201862, “PubChem BioAssay data set” (2004).
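1) Cells in 96-well plates. 2) Compound, 48 h, 5 concentrations. 3) Linear interpolation between surrounding doses. 4) Unreached endpoint = highest concentration. At the GI50, growth is halved.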 Active and inactive are the calls of the source. No stated cut-off is given here; in the data, active = GI50 up to about 1.1 µM and inactive = higher. Where a SMILES comes first, the peptide text is derived from it. [ ]: non-standard residue; d: D form. The star is where a group is joined. Phe(4-NO2) = N[CH](Cc1ccc([N+](=O)[O-])cc1)C(=O)O; Boc = CC(C)(C)OC(=O)*

Assays:
Test in all cases: NCI-60 cell line screen, 48 h
A498 = system: A498
A549 = system: A549
ACHN = system: ACHN
CCRF-CEM = system: CCRF-CEM
COLO 205 = system: COLO 205
K562 = system: K562
LOX IMVI = system: LOX IMVI
MDA-MB-231 = system: MDA-MB-231
MDA-MB-435 = system: MDA-MB-435
NCI-H23 = system: NCI-H23
NCI-H522 = system: NCI-H522
RPMI-8226 = system: RPMI-8226
SF-268 = system: SF-268
SF-539 = system: SF-539
SK-MEL-5 = system: SK-MEL-5
SNB-19 = system: SNB-19
T47D = system: T47D
BT-549 = system: BT-549
SW-620 = system: SW-620
SR = system: SR

Measured: GI50

C#CCC(O)c1ccc(OC)c(OCc2ccccc2)c1 (centres undefined)
inactive: A498 > 100 µM | A549 > 100 µM | ACHN > 100 µM | CCRF-CEM 26.7 µM | COLO 205 > 100 µM | K562 61.9 µM | LOX IMVI > 100 µM | MDA-MB-231 59.2 µM | MDA-MB-435 > 100 µM | NCI-H23 > 100 µM | NCI-H522 > 100 µM | RPMI-8226 > 100 µM | SF-268 > 100 µM | SF-539 > 100 µM | SK-MEL-5 46.9 µM | SNB-19 > 100 µM | T47D > 100 µM

CCCNC1=Nc2ccccc2NC(C)C1 (centres undefined)
inactive: A498 > 100 µM | A549 > 100 µM | ACHN > 100 µM | BT-549 > 100 µM | CCRF-CEM > 100 µM | COLO 205 > 100 µM | K562 > 100 µM | MDA-MB-231 > 100 µM | MDA-MB-435 > 100 µM | NCI-H23 > 100 µM | NCI-H522 > 100 µM | RPMI-8226 > 100 µM | SF-268 > 100 µM | SK-MEL-5 > 100 µM | SNB-19 > 100 µM | SW-620 > 100 µM

CCOC(=O)CCC(NC(=O)C(Cc1ccc([N+](=O)[O-])cc1)NC(=O)OC(C)(C)C)C(=O)NC(CCC(=O)OCC)C(=O)OCC (centres undefined) (Boc-[Phe(4-NO2)]-Glu(OEt)-Glu(OEt)-OEt; configuration not given here)
inactive: A498 19.5 µM | A549 38.5 µM | ACHN 17.4 µM | BT-549 22.2 µM | COLO 205 21.2 µM | K562 > 10 µM | MDA-MB-231 27 µM | NCI-H23 17.9 µM | RPMI-8226 18.1 µM | SK-MEL-5 17.4 µM | SNB-19 95.9 µM | SR 2.87 µM | SW-620 17.9 µM

Oc1ccc(-c2nc3cc(C(F)(F)F)ccc3n2CC2CCCN3CCCCC23)cc1 (centres undefined)
inactive: A498 14.9 µM | ACHN 15 µM | CCRF-CEM 14.7 µM | K562 15.5 µM | LOX IMVI 15.4 µM | MDA-MB-231 14.5 µM | MDA-MB-435 13.5 µM | NCI-H23 16.5 µM | NCI-H522 15.4 µM | RPMI-8226 15.6 µM | SF-268 14.8 µM | SF-539 18.7 µM | SK-MEL-5 14.1 µM | SR 16.6 µM | SW-620 15.1 µM | T47D 18.2 µM

CSc1cc(Cl)c(C)cc1S(=O)(=O)NC(=O)NNc1ccccn1
inactive: A498 > 100 µM | A549 > 100 µM | ACHN > 100 µM | CCRF-CEM > 100 µM | COLO 205 > 100 µM | K562 > 100 µM | LOX IMVI > 100 µM | MDA-MB-231 > 100 µM | MDA-MB-435 > 100 µM | NCI-H522 > 100 µM | SF-268 > 100 µM | SF-539 > 100 µM | SK-MEL-5 > 100 µM | SNB-19 > 100 µM | SR > 100 µM | SW-620 > 100 µM | T47D > 100 µM
